Results published in patent US20170002421A1, “METHODS AND ASSAYS FOR DETERMINING REDUCED BRCA1 PATHWAY FUNCTION IN A CANCER CELL” (THE GENERAL HOSPITAL CORPORATION, priority 2013, published 2017).

Columns and labels:
[1] = clinical use, literature refs 34-38; cited from earlier work
[2] = tested on: breast cancer cell line panel; assay: Pharmacologic inhibition assay (Crystal Violet, mean percent viability); format: cell-based, human
Procedure: All cell lines were obtained and maintained as previously described^15. Independent pharmacologic inhibition assays were conducted in triplicate for each cell line. Cells were seeded at 20,000 per well in a 24-well plate. After 24 hours, cells were treated in triplicate with indicated concentrations of: DMSO, temozolomide (SIGMA ALDRICH™, T2577), or AZD-2281 (SELLECK CHEMICALS™, S1060). After five days of incubation, cells were fixed in 4% formaldehyde and stained with 1% Crystal Violet (SIGMA ALDRICH™, C0775) for ten minutes at room temperature. Cells were then washed to remove unincorporated dye and plates were inverted to dry overnight. Incorporated dye was extracted with 10% acetic acid and OD595 measurements were obtained within a linear range. Treated cells were normalized to the vehicle-treated control to obtain mean percent viability.

Structure (SMILES)	crossing the blood/brain barrier [1]	inhibition (viability) in combination ([2]; 40 nM olaparib combined with 100 uM temozolomide, breast cancer cell line panel (FIG. 4A, lower panel))	reduction in viability, single administration ([2]; either drug alone, seven of the tested cell lines with Garnett et al. expression data (FIG. 4B, top and middle panel))	inhibitory effects (viability) ([2]; olaparib alone, 40 nM, five days incubation, breast cancer cell line panel (FIG. 4A, middle panel))
Cn1nnc2c(C(N)=O)ncn2c1=O [temozolomide]	can cross the blood/brain barrier	–	–	–
O=C(c1cc(Cc2n[nH]c(=O)c3ccccc23)ccc1F)N1CCN(C(=O)C2CC2)CC1 [olaparib]	evidence of crossing the blood/brain barrier	exerts inhibition	did not demonstrate a significant reduction in viability	does not demonstrate inhibitory effects alone
